Reference: a compilation of properties of binary mixtures (doi:10.1021/acs.jced.9b01032)

Test: xn = mol fraction of the nth substance listed
Details: 93.2 kPa

CCCC[n+]1ccn(C)c1.F[P-](F)(F)(F)(F)F + NC=O
speed of sound [m/s]
Details	288.15 K	293.15 K	298.15 K	303.15 K
x1 = 0.0502	1587	1576	1565	1554
x1 = 0.0995	1563	1552	–	1529
x1 = 0.1488	1545	1534	1522	1511
x1 = 0.2006	–	–	1508	1497
x1 = 0.3001	1513	1501	–	1478
x1 = 0.3821	–	1491	1479	1468
x1 = 0.4985	1494	1482	1470	1458
x1 = 0.595	–	1476	1464	–
x1 = 0.6976	1484	–	–	1448
x1 = 0.7792	1482	–	–	1445
x1 = 0.8902	1480	1467	1454	1442
x1 = 1	1478	1464	–	1439

NC=O + CCCC[n+]1ccn(C)c1.F[P-](F)(F)(F)(F)F
x2 = 0
Details	speed of sound [m/s]
288.15 K	1619
298.15 K	1598
303.15 K	1588
